# Measured values reported in publication PMC4760439, “Glicentin‐related pancreatic polypeptide inhibits glucose‐stimulated insulin secretion from the isolated pancreas of adult male rats” (Physiological Reports, 2015).
# Entries after “also recorded” stand apart in the source; their conditions may differ. Positions of bridges follow the written chain, without caps; N, C: chain ends. No end group written: not given here.
# How the values were obtained:
# hGL‐R with RAMP2 = assay: cAMP stimulation in Cos 7 cells transfected with hGL‐R and RAMP2; assay type: cell-based, human; details: preliminary experiment; data not shown
# Procedure: (§1) Cyclic AMP stimulation of transfected Cos 7 cells
# (§2) Transfected cells were serum‐deprived in DMEM containing 1 mmol L^−1 IBMX and 0.1% (w/v) bovine serum albumin (BSA) for 30 min. […] Plates were incubated at 37°C for 10 min. […] Media were then aspirated from the wells and reactions terminated by addition of ice‐cold absolute ethanol. Ethanol was then evaporated to dryness and cell extracts re‐suspended in 45 μL cAMP assay buffer: cAMP concentrations were determined using ALPHA‐screen assay kits (Perkin Elmer, Massachusetts) as previously described (Gingell et al. 2010).
# isolated rat islets = assay: Insulin secretion from isolated rat islets (static incubation); assay type: cell-based; details: hGRPP 1, 10, and 100 nmol L^−1, 1 h, 8 to 9 incubations of 10 islets/well, three experiments, ELISA
# Excerpt: (§3) Maximum pancreatic first‐phase insulin secretion in the presence of hormone infusion was contrasted with corresponding control values by unpaired Welch's t‐tests for preplanned comparisons, to allow for unequal variance between groups. Linear mixed‐effects models were fitted by restricted maximum likelihood (LME‐REML) to data obtained from each indicated phase of isolated perfused–organs studies, using S‐PLUS version 8.2 (TIBCO, Spotfire). Calculated P‐values <0.05 are presented in the article and reflect the likelihood ratio between two models, the effect in question (treatment, time, or treatment:time) against the model without the effect in question. Insulin secreted from isolated islets was expressed as a percentage of insulin content and compared using one‐way ANOVA (GraphPad Prism version 6.0: GraphPad Software Inc., San Diego, CA). Cyclic AMP data have been normalized to the response obtained to forskolin and fitted to obtain concentration–response curves using a three‐parameter logistic equation (GraphPad Prism version 6.0: GraphPad Software Inc., San Diego, CA): pEC50 values were obtained from the concentration–response curves and compared using one‐way ANOVA. All data are presented as mean ± SEM of three to four independent experiments.
# canine pancreas = details: local circulation preparation of the canine pancreas; ref Ohneda and Ohneda 1988; cited from earlier work
# Excerpt: However, we know of only one study reporting the effects of GRPP on GSIS. […] The precise experimental conditions such as amount of glucose and experimental model used may have influences on the different outcomes; however, the reason for the opposing actions of GRPP between these ...
# [1] = target: T1, human glucagon receptor (hGL‐R) (Homo sapiens, UniProt P47871); assay: cAMP stimulation in transfected Cos 7 cells, hGL‐R; assay type: cell-based; details: preliminary experiment, hGL‐R with vector; data not shown
# T1 construct: expressed in transfected cells; host or cells: Cos 7 cells
# T1 sequence (P47871 26-477): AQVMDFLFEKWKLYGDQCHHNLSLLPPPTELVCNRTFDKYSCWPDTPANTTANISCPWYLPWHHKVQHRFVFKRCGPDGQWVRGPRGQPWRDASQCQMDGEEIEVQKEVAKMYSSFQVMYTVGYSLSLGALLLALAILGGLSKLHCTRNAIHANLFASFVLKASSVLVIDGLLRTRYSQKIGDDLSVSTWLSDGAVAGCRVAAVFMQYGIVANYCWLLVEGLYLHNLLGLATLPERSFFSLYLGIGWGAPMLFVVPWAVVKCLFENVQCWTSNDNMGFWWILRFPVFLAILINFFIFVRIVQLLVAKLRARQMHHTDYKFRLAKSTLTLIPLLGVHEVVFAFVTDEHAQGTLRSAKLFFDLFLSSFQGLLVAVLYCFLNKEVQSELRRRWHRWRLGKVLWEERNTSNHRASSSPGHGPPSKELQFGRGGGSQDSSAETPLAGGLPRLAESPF
# Procedure: Transfection of Cos 7 cells
# Cos 7 cells were maintained and subcultured as previously described (Bailey and Hay 2006) and plated at a density of 15,000 cells per well into 96‐well plates 1 day prior to transfection. […] Cyclic AMP assays were performed 48 h after transfection (Bailey and Hay 2006). The human GRPP was obtained from Bachem (Bubendorf, Switzerland).
# as §1, §2
# as §3, with “Cyclic AMP data have been normalized to the response obtained to forskolin and fitted to obtain concentration–response curves using a three‐parameter logistic equation (GraphPad Prism version 6.0: GraphPad Software Inc., San Diego, CA): pEC50 values were obtained from the concentration–response curves and compared using one‐way ANOVA. All data are presented as mean ± SEM of three to four independent experiments.” left out
# [2] = tested on: isolated‐perfused rat pancreas, perifused rat islets, and cultured islets; details: ref Norfleet et al. 1975, Fujimoto 1981, Bolaffi et al. 1990; cited from earlier work
# Excerpt: (§4) GRPP and GRPP‐LP may inhibit insulin secretion indirectly, perhaps by influencing other islet‐derived hormones known to modulate hormone secretion from the β‐cell.
# [3] = tested on: plasma insulin and glucagon; details: infusion in humans; ref Skamene and Patel 1984; cited from earlier work
# Excerpt: as §4
# pancreatic β‐cell = details: ref Metz et al. 1983; Zielmann et al. 1985; Holst et al. 1987; Shima et al. 1988; Goke et al. 1989; Ishizuka et al. 1991; Jia et al. 1995; Vahl et al. 2003; cited from earlier work
substance,measurement,setting,value
"RSLQDTEEKSRSFSASQADPLSDPDQMNED [hGRPP, human glicentin‐related pancreatic polypeptide, The human GRPP was obtained from Bachem]",Stimulation of cAMP production at hGL‐R in the presence of RAMP2,hGL‐R with RAMP2,did not stimulate cAMP production at hGL‐R alone or in the presence of RAMP2
same,Basal insulin secretion from islets (vs control),isolated rat islets; 2.8 mmol L^−1 glucose,did not affect insulin secretion; also recorded: did not affect basal or stimulated insulin compared with untreated islets
same,Glucose‐stimulated insulin secretion from islets (vs control),isolated rat islets; 16.7 mmol L^−1 glucose,did not affect insulin secretion; also recorded: did not affect basal or stimulated insulin compared with untreated islets
same,"Plasma insulin and glucagon, canine pancreas",canine pancreas,slight increases in plasma insulin and decreases in plasma glucagon
same,Stimulation of cAMP production at hGL‐R alone,[1],did not stimulate cAMP production at hGL‐R alone
"somatostatin (AGCKNFFWKTFTSC; disulfide 3-14; ends not checked; UniProt P61278 103-116, looked up) [SST]",GSIS and arginine‐stimulated glucagon secretion,[2],inhibits GSIS as well as arginine‐stimulated glucagon secretion
same,Arginine‐stimulated plasma insulin and glucagon levels,[3],decreased arginine‐stimulated plasma insulin and glucagon levels in a dose‐dependent manner
"glucagon‐like peptide 1 (HAEGTFTSDVSSYLEGQAAKEFIAWLVKGR; ends and bridges not checked; UniProt P01275 98-127, looked up) [GLP‐1, incretin; literature statement, form not specified]",GSIS (action on pancreatic β‐cell),pancreatic β‐cell,enhance glucose‐stimulated insulin secretion
